Reference: patent US20230301993A1, “Low-Dose Ophthalmic Compositions and Methods” (priority 2020, published 2023)
Entries after “also recorded” stand apart in the source; their conditions may differ.

Key:
rabbit eye model [1] = experiment: Pupillometry: effect of single topical ocular administration on pupillary diameter (miotic effect) in rabbit eye model; assay type: in vivo, Dutch Belted Rabbits
Description: The following examples were performed to determine which active pharmaceutical agent (API), alone or in combination, could effect upon topical administration an approximate 1-2 mm decrease in pupillary diameter with a desirable (e.g., about 4 h) duration of action. Unless stated otherwise, a rabbit animal model was used for the studies. Phentolamine was used as a positive control (comparator API) and caused an approximately 1 mm decrease in the pupil at 0.5% and 1% with a duration of more than 6 hours.
Study design: 3 Dutch Belted Rabbits (pigmented breed)/group received a single ocular administration of test articles (one drop per eye) at 3 concentrations (tested one week apart). After a 2-week rest period, combinations were tested. Ocular irritation was assessed using a modified Draize test. Intraocular pressure (IOP) was measured at baseline, 1 h, 4 h, 6 h and 24 hours. Pupillary Diameter was measured at baseline, 15 min, 1 h, 4 h and 6 h after dosing. Due to the variation in pupillary diameter and IOP between rabbits and between eyes within rabbits, the data for pupillary diameter and IOP were normalized and presented with error bars (SD). A change of 15% to 20% approximates a pupillary diameter change of 1 mm. […]

rabbit eye model [2] = experiment: Effect of benzalkonium chloride on the miotic effect of carbachol; assay type: in vivo
Description: In still further experiments, the inventors investigated the effect of benzalkonium chloride on the miotic effect of carbachol. To that end, different concentrations of BAC were employed between 0.005% and 0.02% at carbachol concentrations between 0.025% and 0.075%, and the results are shown in FIGS. 6A-6C. […] As BAK is believed to increase permeability of the respective agents across the corneal tissue, addition of BAK at concentrations up to 0.05% may advantageously increase miotic effect at otherwise identical drug concentration. Thus, BAK may enhance the miotic action of brimonidine, rivastigmine, galantamine, and carbachol, which may in turn allow for reduced drug concentrations and/or increased miotic effect without unduly extending the duration of the miotic effect.

Molecule: Brc1c(N=C2NCCN2)ccc2nccnc12.O=C(O)C(O)C(O)C(=O)O [Brimonidine, 5-Bromo-6-(2-imidazolidinylideneamino) quinoxaline L-tartrate]
- miotic effect on pupillary diameter (rabbit eye model [1]; at doses tested, rabbit): little to no effect
- miotic effect on pupillary diameter (rabbit eye model [1]; doses at or below 0.1%, rabbit (FIG. 2), L-tartrate): some miotic effect; also recorded: moderate effect
- miotic effect on pupillary diameter (rabbit eye model [1]; higher doses tested, at or above 0.2%, rabbit (FIG. 2)): little to no effect

Molecule: Br.COc1ccc2c3c1O[C@H]1C[C@@H](O)C=C[C@@]31CCN(C)C2 [Galantamine, galantamine]
- decrease in pupil (rabbit eye model [1]; concentration of about 2%, alone, rabbit): 1-2 mm
- duration of reduction in pupillary diameter (lasted at least) (rabbit eye model [1]; high dose (2%), rabbit (FIG. 4A)): at least 1 h

Molecule: Cc1ccc(N(CC2=NCCN2)c2cccc(O)c2)cc1 [Phentolamine]
- duration of reduction in pupillary diameter (rabbit eye model [1]; all doses, topical, rabbit (FIG. 1)): at least 6 h
- decrease in the pupil (rabbit eye model [1]; at 0.5% and 1%, topical, one drop per eye, rabbit): approximately 1 mm

Molecule: CCN(C)C(=O)Oc1cccc(C(C)N(C)C)c1 (stereo not drawn) [Rivastigmine, N-ethyl-3-[1-dimethylamino)ethyl]-N-methylphenyl carbamate]
- decrease in pupil (rabbit eye model [1]; concentration of about 1%, alone, rabbit): 1 mm
- miotic effect on pupillary diameter (comparison in words) (rabbit eye model [1]; concentration of about 1%, alone, rabbit (FIG. 3A)): substantially similar to phentolamine

Molecule: C[N+](C)(C)CCOC(N)=O [carbachol]
- duration of action (miotic effect) (rabbit eye model [1]; carbachol, even at lowest dose (about 0.075%), rabbit): 2 to 4 h
- miotic effect (potency in words) (rabbit eye model [1]; even at the lowest dose / low concentration of about 0.075%, rabbit (FIG. 5)): very potent

Molecule: N-Alkyl-N-benzyl-N,N-dimethyl-ammonium chloride [BAC]
- effect of BAC on miotic effect of carbachol (rabbit eye model [2]; BAC 0.005%, at 1 hr, higher carbachol concentration (FIG. 6A)): some effect
- effect of BAC on miotic effect of carbachol (rabbit eye model [2]; BAC 0.005%, carbachol 0.025%-0.075% (FIG. 6A)): minimal effect
- effect of BAC on miotic effect of carbachol (rabbit eye model [2]; BAC 0.01%, carbachol 0.025%-0.075% (FIG. 6B)): somewhat more pronounced
- effect of BAC on miotic effect of carbachol (rabbit eye model [2]; BAC at least 0.02%, carbachol 0.025%-0.075% (FIG. 6C)): significant
